System: Bacillus subtilis spores
Assay: Sporicidal activity against Bacillus subtilis spore suspension (cfu pour-plate count vs distilled water controls)
Type: cell-based
Details: spore suspension diluted 1:100 into composition
Experimental: Spore suspensions were prepared by streaking standard agar plates with Bacillus subtilis and then incubating the plates for 48-72 hours at 37° C. The resulting bacteria and their spores were scraped from the plates and suspended by agitation in a 50% ethanol-water solution for four hours in order to lyse the vegetative cells. The spores were collected by centrifugation, washed three times and then suspended in 50% ethanol-water, resulting in a spore titer of 10^9 spores/mL. […] After treatment, the spore suspensions were diluted in distilled water and duplicate aliquots from each dilution were pour-plated on tripticase soy agar. Total colony-forming units (cfu) were counted after incubation at 37° C. for 24 hours. Sporicidal activity was directly proportional to the reduction of cfu compared to the distilled water controls.
Test results from representative compositions are summarized in Table 1 and the associated graph of the data (FIG. 2). In addition, test data for exposure to 0.1% L-alanine in the absence of sporicidal agents is included.

`C[C@H](N)C(=O)O` [L-alanine] was tested, and the “Test results of Spore-inactivating Compositions vs. Exposure Time (cfu compared to distilled water controls)” value (exposure time 0.00 hrs) was 100.0%, the “Test results of Spore-inactivating Compositions vs. Exposure Time (cfu compared to distilled water controls)” value (exposure time 0.25 hrs) was 106.0% and the “Test results of Spore-inactivating Compositions vs. Exposure Time (cfu compared to distilled water controls)” value (exposure time 0.50 hrs) was 111.0%. For the same compound, the “Test results of Spore-inactivating Compositions vs. Exposure Time (cfu compared to distilled water controls)” value (exposure time 1.00 hrs) was 113.0% and the “Test results of Spore-inactivating Compositions vs. Exposure Time (cfu compared to distilled water controls)” value (exposure time 4.00 hrs) was 116.0%.
